Assay results taken from ChEMBL document CHEMBL1201862, “PubChem BioAssay data set” (2004).
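Assay format: 96-well plates, 48-hour exposure. GI50 = concentration required for 50% inhibition of growth.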 Activity calls are given as the source filed them. No stated cut-off is given here; in the data, active = GI50 up to about 1.1 µM and inactive = higher.

How the values were obtained:
Assay in all cases: NCI anticancer screen, dose series, 48 h
786-0 = test system: 786-0
CAKI-1 = test system: CAKI-1
CCRF-CEM = test system: CCRF-CEM
HL-60 = test system: HL-60
HT-29 = test system: HT-29
K562 = test system: K562
Malme-3M = test system: Malme-3M
NCI-H226 = test system: NCI-H226
NCI-H460 = test system: NCI-H460
OVCAR-4 = test system: OVCAR-4
RPMI-8226 = test system: RPMI-8226
RXF 393 = test system: RXF 393
SF-268 = test system: SF-268
SNB-19 = test system: SNB-19
SR = test system: SR
TK-10 = test system: TK-10
UACC-62 = test system: UACC-62
MDA-MB-435 = test system: MDA-MB-435
T47D = test system: T47D
MDA-N = test system: MDA-N

Row | SMILES | GI50 (786-0) | GI50 (CAKI-1) | GI50 (CCRF-CEM) | GI50 (HL-60) | GI50 (HT-29) | GI50 (K562) | GI50 (Malme-3M) | GI50 (NCI-H226) | GI50 (NCI-H460) | GI50 (OVCAR-4) | GI50 (RPMI-8226) | GI50 (RXF 393) | GI50 (SF-268) | GI50 (SNB-19) | GI50 (SR) | GI50 (TK-10) | GI50 (UACC-62) | GI50 (MDA-MB-435) | GI50 (T47D) | GI50 (MDA-N)
1 | COC1OC(C)C(OC(=O)C(C)(C)C)C(C)(O)C1O (stereo not given) | > 100 µM (inactive) | > 100 µM (inactive) | > 100 µM (inactive) | > 100 µM (inactive) | > 100 µM (inactive) | > 100 µM (inactive) | > 100 µM (inactive) | > 10 µM (inactive) | > 100 µM (inactive) | > 100 µM (inactive) | > 100 µM (inactive) | > 100 µM (inactive) | > 100 µM (inactive) | > 100 µM (inactive) | > 100 µM (inactive) | > 100 µM (inactive) | > 100 µM (inactive) | – | – | –
2 | O=C1OC(=O)C2C3CCC(O3)C12 (stereo not given) | > 100 µM (inactive) | > 100 µM (inactive) | > 100 µM (inactive) | > 100 µM (inactive) | > 100 µM (inactive) | > 100 µM (inactive) | > 100 µM (inactive) | > 100 µM (inactive) | > 100 µM (inactive) | – | > 100 µM (inactive) | > 100 µM (inactive) | > 100 µM (inactive) | > 100 µM (inactive) | > 100 µM (inactive) | > 100 µM (inactive) | > 100 µM (inactive) | – | – | –
3 | COc1ccc(NS(=O)(=O)c2ccc(/N=C3\C=C(Nc4ccc(S(=O)(=O)Nc5ccc(OC)nn5)cc4)C(=O)c4ccccc43)cc2)nn1 | 17.8 µM (inactive) | 22 µM (inactive) | > 100 µM (inactive) | > 100 µM (inactive) | 20.5 µM (inactive) | 61.1 µM (inactive) | 19 µM (inactive) | 19.3 µM (inactive) | 17.7 µM (inactive) | 18.3 µM (inactive) | 53.7 µM (inactive) | 18.4 µM (inactive) | 21.4 µM (inactive) | 18.8 µM (inactive) | 83.6 µM (inactive) | 21.9 µM (inactive) | 18.6 µM (inactive) | – | – | –
4 | O=C(c1ccc(Cl)cc1)c1ccc(OCC(=O)N2CCN(c3ccccc3)CC2)cc1 | > 100 µM (inactive) | > 100 µM (inactive) | > 100 µM (inactive) | > 100 µM (inactive) | > 100 µM (inactive) | > 100 µM (inactive) | > 100 µM (inactive) | > 100 µM (inactive) | > 100 µM (inactive) | > 100 µM (inactive) | > 100 µM (inactive) | > 100 µM (inactive) | > 100 µM (inactive) | > 100 µM (inactive) | 84.5 µM (inactive) | > 100 µM (inactive) | > 100 µM (inactive) | – | – | –
5 | O=C(/C=C1\Nc2ccccc2N\C1=C\C(=O)c1ccc(Cl)cc1)c1ccccc1 | 26 µM (inactive) | 27.8 µM (inactive) | 10.4 µM (inactive) | – | – | 37.5 µM (inactive) | > 100 µM (inactive) | > 100 µM (inactive) | 19.7 µM (inactive) | 31.3 µM (inactive) | 39.4 µM (inactive) | 70.1 µM (inactive) | > 100 µM (inactive) | 94.4 µM (inactive) | 20.6 µM (inactive) | > 100 µM (inactive) | > 100 µM (inactive) | > 100 µM (inactive) | 16 µM (inactive) | –
6 | Oc1c2cccc1Cc1cccc3c1OCCOCCOCCOCCOc1c(cccc1Cc1cccc(c1O)C3)C2 | > 100 µM (inactive) | > 100 µM (inactive) | > 100 µM (inactive) | – | 54.3 µM (inactive) | > 100 µM (inactive) | – | 22.5 µM (inactive) | – | > 100 µM (inactive) | > 100 µM (inactive) | > 100 µM (inactive) | > 100 µM (inactive) | > 100 µM (inactive) | 2.06 µM (inactive) | > 100 µM (inactive) | 26.7 µM (inactive) | > 100 µM (inactive) | > 100 µM (inactive) | –
7 | Nc1ccc(-c2nc3ccc(F)cc3s2)cc1Cl | > 61.1 µM (inactive) | > 78.5 µM (inactive) | 5.57 µM (inactive) | – | 52.7 µM (inactive) | > 100 µM (inactive) | > 100 µM (inactive) | 14.1 µM (inactive) | – | 0.0174 µM (active) | > 100 µM (inactive) | > 41.5 µM (inactive) | 35.3 µM (inactive) | > 62.2 µM (inactive) | > 100 µM (inactive) | < 0.01 µM (active) | > 69.8 µM (inactive) | > 100 µM (inactive) | – | > 100 µM (inactive)
8 | CC(C(=O)n1c2ccccc2c2ccccc21)N(c1ccccc1)c1ccccc1 (stereo not given) | 16.6 µM (inactive) | 14.5 µM (inactive) | 1.64 µM (inactive) | 4.46 µM (inactive) | 19.5 µM (inactive) | 16.9 µM (inactive) | 15.1 µM (inactive) | 23.7 µM (inactive) | 34.6 µM (inactive) | – | 16.3 µM (inactive) | 14.6 µM (inactive) | 19.3 µM (inactive) | 45.1 µM (inactive) | 8.93 µM (inactive) | 20 µM (inactive) | 17.6 µM (inactive) | – | – | –
9 | CC(C)(C)c1ccc(OC(=O)Nc2ccc(O)c(C(=O)O)c2)cc1 | > 100 µM (inactive) | > 100 µM (inactive) | > 100 µM (inactive) | 30.7 µM (inactive) | > 100 µM (inactive) | > 100 µM (inactive) | > 100 µM (inactive) | > 100 µM (inactive) | > 100 µM (inactive) | > 100 µM (inactive) | > 100 µM (inactive) | > 100 µM (inactive) | > 100 µM (inactive) | > 100 µM (inactive) | > 100 µM (inactive) | > 100 µM (inactive) | > 100 µM (inactive) | > 100 µM (inactive) | > 100 µM (inactive) | –
10 | O=C1C=C(c2c(O)ccc3ccccc23)c2cc(O)ccc2C1=O | 18.7 µM (inactive) | 19.5 µM (inactive) | – | 2.02 µM (inactive) | 25.3 µM (inactive) | > 100 µM (inactive) | 19.2 µM (inactive) | 20.9 µM (inactive) | 20.3 µM (inactive) | 11.1 µM (inactive) | 4.47 µM (inactive) | 14.6 µM (inactive) | 16.3 µM (inactive) | 17.5 µM (inactive) | 6.59 µM (inactive) | 20.9 µM (inactive) | 4.43 µM (inactive) | – | – | –
11 | CC1NOC(=O)C1/N=N/c1cccc(Cl)c1 (stereo not given) | 30.2 µM (inactive) | 38.6 µM (inactive) | 21.4 µM (inactive) | 18.4 µM (inactive) | 27.4 µM (inactive) | 25.6 µM (inactive) | 29.7 µM (inactive) | 32.3 µM (inactive) | 31.2 µM (inactive) | 32.9 µM (inactive) | – | 22.8 µM (inactive) | 23.1 µM (inactive) | 37.7 µM (inactive) | 21.2 µM (inactive) | 42.8 µM (inactive) | 34.6 µM (inactive) | – | – | –
12 | CS/C(=N\C(=S)Nc1ccccc1)Nc1ccccc1 | > 10 µM (inactive) | 14.6 µM (inactive) | – | 10.6 µM (inactive) | 6.37 µM (inactive) | 12.6 µM (inactive) | 15.2 µM (inactive) | 18.5 µM (inactive) | 12 µM (inactive) | 26.3 µM (inactive) | 12.8 µM (inactive) | 15.2 µM (inactive) | 25.6 µM (inactive) | 21.7 µM (inactive) | 15.4 µM (inactive) | 14.2 µM (inactive) | 4.58 µM (inactive) | – | – | –
